{
  "source": "paper PMC11013252",
  "about": "“Exploration of the Antibacterial and Anti-Inflammatory Activity of a Novel Antimicrobial Peptide Brevinin-1BW” (Molecules, 2024)",
  "key": {"E. coli (ATCC25922)": {"system": "E. coli (ATCC25922)", "test": "microbe, parasite or virus in culture", "format": "cell-based", "details": "ATCC25922, 18 h", "experimental": "The minimum inhibitory concentration (MIC) of the Brevinin-1BW was measured in 96-well microtiter plates according to the Clinical and Laboratory Standards Institute (CLSI). The activated strains were treated with Mueller Hinton Agar (MHA) solid medium. Single colonies were picked and expanded to the logarithmic growth phase, and the solution was diluted to 2 × 10^6 CFU/mL using the McFarland turbidity standard. The MIC was determined with the two-fold dilution method. Briefly, 50 μL of Mueller Hinton (MH) medium was added to a 96-well plate in advance. Then, 50 μL of AMP solution was added to the first well, and 50 μL was pipetted into the next well after mixing using a row gun, while 50 μL was discarded from the last well. Final concentrations of Brevinin-1BW were 100, 50, 25, 12.5, 6.25, and 3.125 μg/mL. A 50 μL volume of the diluted bacterial solution was added, and the final concentration of the bacterial solution was 1 × 10^6 CFU/mL. This was then placed into a 37 °C incubator for 18 h until the next day to observe the degree of turbidity of the 96-well plate and measure the absorbance of the wells at 600 nm with a multifunctional microplate reader (SpectraMax iD5, Molecular Devices, Sunnyvale, CA, USA). The absence of turbidity and the measured concentration of absorbance being less than the opposing group was taken as the MIC. The positive control used ampicillin at the same final concentration as Brevinin-1BW, the negative control used 50 μL of MH medium mixed with 50 μL of 2 × 10^6 CFU/mL bacterial solution, and the blank contained only 100 μL of MH medium. Three replicate wells were set up for each experiment, and each experiment was repeated three times. The MIC and all concentrations above the MIC of bacterial solution coated on MHA solid medium were placed into 37 °C incubator incubation for 18 h. The lowest concentration resulting in no colony growth was taken as the minimum bactericidal concentration (MBC)."}, "ABTS radical scavenging": {"test": "ABTS radical scavenging", "details": "at 200 μg/mL, room temperature, 6 min, absorbance 734 nm", "experimental": "ABTS^+ scavenging capacity: A 7 mM ABTS (Med Chem Express, NJ, USA) solution and 140 mM potassium persulfate (Aladdin, Shanghai, China) solution were prepared. A 5 mL volume of ABTS was taken and mixed with 88 μL of potassium persulfate before being placed in the dark at room temperature for 14 h to form the ABTS radical stock solution. The ABTS radical stock solution was then diluted with 95% ethanol by volume to reach an OD734 nm = 0.7. Then, 10 μL of Brevinin-1BW solution was mixed with 50 μL of ABTS radical stock solution, and the resulting absorbance was measured at 734 nm for 6 min at room temperature, which was recorded as A1. The absorbance of 95% ethanol was measured as A2. The same concentration of vitamin C was used as the positive control. The clearance was calculated according to the following equation: ABTS^+ Clearance Rate%=(A2−A1)/A2×100"}},
  "note": "Positions of bridges follow the written chain, without caps; N, C: chain ends. Residues, ends and D or L forms follow the SMILES beside them.",
  "data": [
    {"smiles": "CC[C@H](C)[C@@H]1NC(=O)[C@H](CCCCN)NC(=O)[C@@H](NC(=O)[C@H](Cc2ccccc2)NC(=O)[C@@H](NC(=O)[C@@H](NC(=O)[C@@H]2CCCN2C(=O)[C@H](CC(C)C)NC(=O)[C@H](Cc2ccccc2)NC(=O)[C@H](CO)NC(=O)[C@H](C)NC(=O)[C@H](C)NC(=O)[C@H](CC(C)C)NC(=O)CNC(=O)[C@H](C)NC(=O)[C@H](CC(C)C)NC(=O)[C@H](CC(C)C)NC(=O)[C@@H]2CCCN2C(=O)[C@H](CC(C)C)NC(=O)[C@@H](N)Cc2ccccc2)[C@@H](C)O)[C@@H](C)CC)CSSC[C@@H](C(=O)O)NC(=O)[C@H](CCCCN)NC(=O)[C@H](CCCNC(=N)N)NC(=O)[C@H](CO)NC1=O", "note": "[Brevinin-1BW] (H-FLPLLAGLAASFLPTIFCKISRKC-OH; disulfide 18-24)", "values": [
      {"measurement": "MBC", "setting": "E. coli (ATCC25922)", "result": ">100", "unit": "µg/mL"},
      {"measurement": "MIC", "setting": "E. coli (ATCC25922)", "result": 100, "unit": "µg/mL"},
      {"measurement": "ABTS radical scavenging", "setting": "ABTS radical scavenging", "result": "less than 20%"}
    ]}
  ]
}
